The supplement of paper PMC10307832

What was measured:
Experiment in all cases: relative viability (nuclei count vs DMSO), 5 days (fraction); higher = more cells survive
FG-4592 + Lapatinib = compound: Cc1nc(C(=O)NCC(=O)O)c(O)c2ccc(Oc3ccccc3)cc12 [FG-4592] + CS(=O)(=O)CCNCc1ccc(-c2ccc3ncnc(Nc4ccc(OCc5cccc(F)c5)c(Cl)c4)c3c2)o1 [Lapatinib] (partner 2 µM)
Summary of the method: (§1)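 Lung cancer cell lines, seeded in 1536-well plates, were treated the following day by pin tool with a single drug or with five library-drug doses (not always all listed) in √10 steps on top of a fixed anchor-drug dose. Cells were fixed and nuclei stained in one step after 5 days, and nuclei were counted. Relative viability is the nuclei count for treated wells divided by that for vehicle wells, reported as medians of duplicate plates.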

FG-4592 + AZD7762 = compound: Cc1nc(C(=O)NCC(=O)O)c(O)c2ccc(Oc3ccccc3)cc12 [FG-4592] + NC(=O)Nc1cc(-c2cccc(F)c2)sc1C(=O)N[C@H]1CCCNC1 [AZD7762] (partner 0.2 µM)
Summary of the method: as §1

FG-4592 + Luminespib = compound: Cc1nc(C(=O)NCC(=O)O)c(O)c2ccc(Oc3ccccc3)cc12 [FG-4592] + CCNC(=O)c1noc(-c2cc(C(C)C)c(O)cc2O)c1-c1ccc(CN2CCOCC2)cc1 [Luminespib] (partner 0.01 µM)
Summary of the method: as §1

IU1-47 + OSI-027 = compound: CC1=CC(=C(N1C2=CC=C(C=C2)Cl)C)C(=O)CN3CCCCC3 [IU1-47] + COc1cccc2cc(-c3nc([C@H]4CC[C@H](C(=O)O)CC4)n4ncnc(N)c34)[nH]c12 [OSI-027] (partner 0.5 µM)
Summary of the method: as §1

Row | Cell Line | relative viability (FG-4592 + Lapatinib; first compound 0.08 µM) | relative viability (FG-4592 + Lapatinib; first compound 0.253 µM) | relative viability (FG-4592 + Lapatinib; first compound 0.8 µM) | relative viability (FG-4592 + Lapatinib; first compound 2.53 µM) | relative viability (FG-4592 + Lapatinib; first compound 8 µM) | relative viability (FG-4592 + AZD7762; first compound 0.08 µM) | relative viability (FG-4592 + AZD7762; first compound 0.253 µM) | relative viability (FG-4592 + AZD7762; first compound 0.8 µM) | relative viability (FG-4592 + AZD7762; first compound 2.53 µM) | relative viability (FG-4592 + AZD7762; first compound 8 µM) | relative viability (FG-4592 + Luminespib; first compound 0.08 µM) | relative viability (FG-4592 + Luminespib; first compound 0.253 µM) | relative viability (FG-4592 + Luminespib; first compound 0.8 µM) | relative viability (FG-4592 + Luminespib; first compound 2.53 µM) | relative viability (FG-4592 + Luminespib; first compound 8 µM) | relative viability (IU1-47 + OSI-027; first compound 0.08 µM) | relative viability (IU1-47 + OSI-027; first compound 0.253 µM) | relative viability (IU1-47 + OSI-027; first compound 0.8 µM) | relative viability (IU1-47 + OSI-027; first compound 2.53 µM) | relative viability (IU1-47 + OSI-027; first compound 8 µM)
1 | IA-LM | 0.675 | 0.78 | 0.66 | 0.711 | 0.567 |  |  |  |  |  |  |  |  |  |  |  |  |  |  | 
2 | LCLC-103H |  |  |  |  |  | 0.609 | 0.741 | 0.635 | 0.785 | 0.686 | 0.891 | 0.935 | 0.998 | 1.09 | 0.855 | 0.508 | 0.492 | 0.472 | 0.484 | 0.416
3 | NCI-H441 |  |  |  |  |  | 1.26 | 0.852 | 1.46 | 1 | 0.978 | 0.314 | 0.307 | 0.307 | 0.443 | 0.287 | 0.74 | 0.724 | 0.572 | 0.535 | 0.676
4 | NCI-H520 | 0.754 | 0.758 | 0.828 | 0.793 | 0.721 |  |  |  |  |  | 0.22 | 0.209 |  | 0.204 | 0.201 | 0.261 | 0.27 | 0.305 | 0.3 | 0.206
5 | NCI-H522 |  |  |  |  |  | 0.78 | 0.717 |  | 0.666 | 0.819 | 0.895 | 1.22 | 1.18 | 1.01 | 1.08 | 0.751 | 0.592 | 0.56 | 0.572 | 0.619
6 | NCI-H661 | 0.446 | 0.462 | 0.578 | 0.473 | 0.403 |  |  |  |  |  | 0.94 | 0.888 | 0.961 | 0.863 | 0.951 | 0.81 | 0.753 | 0.63 | 0.799 | 0.647
7 | NCI-H1299 | 0.969 | 0.941 | 0.981 | 0.954 | 0.988 |  |  |  |  |  |  |  |  |  |  |  |  |  |  | 
8 | NCI-H1563 | 0.873 | 0.829 | 0.779 | 1.04 | 0.809 |  |  |  |  |  | 0.552 | 0.528 | 0.537 | 0.534 | 0.535 | 0.809 | 0.782 | 0.785 | 0.757 | 0.663
9 | NCI-H1648 |  |  |  |  |  | 0.622 | 0.662 |  | 0.714 | 0.921 |  |  |  |  |  | 0.264 | 0.295 | 0.251 | 0.266 | 0.277
10 | NCI-H1650 | 0.637 | 0.704 | 0.544 | 0.677 | 0.78 |  |  |  |  |  | 0.206 | 0.208 | 0.219 | 0.197 | 0.209 | 0.502 | 0.438 | 0.645 | 0.521 | 0.412
11 | NCI-H1703 | 1.11 | 0.881 | 1.11 | 0.966 | 0.936 | 0.138 | 0.135 | 0.12 |  | 0.126 |  |  |  |  |  |  |  |  |  | 
12 | NCI-H2009 | 1.02 | 0.878 | 0.888 | 0.735 | 0.924 |  |  |  |  |  | 1.04 | 0.936 | 1.01 | 0.959 | 0.999 | 0.662 | 0.672 | 0.676 | 0.558 | 0.593
13 | NCI-H2023 | 1.03 | 0.735 | 0.407 | 0.468 | 0.598 |  |  |  |  |  | 0.617 | 0.634 | 0.698 | 0.773 | 0.599 | 0.375 | 0.391 | 0.436 | 0.259 | 0.352
14 | NCI-H2228 | 1.46 | 0.778 | 0.84 | 0.844 | 0.864 |  |  |  |  |  | 0.151 | 0.181 | 0.174 | 0.113 | 0.16 | 0.619 | 0.581 | 0.662 | 0.368 | 0.39
15 | NCI-H2342 |  |  |  |  |  | 0.456 | 0.459 | 0.526 | 0.403 | 0.438 | 0.674 | 0.71 | 0.576 | 0.783 | 0.537 | 0.668 | 0.69 | 0.578 | 0.517 | 0.619
16 | SK-LU-1 | 0.774 | 0.717 | 0.776 | 0.988 | 0.88 |  |  |  |  |  | 0.184 | 0.174 | 0.187 | 0.223 | 0.202 | 0.4 | 0.32 | 0.309 | 0.362 | 0.323
17 | SK-MES-1 | 0.513 | 0.489 | 0.42 | 0.489 | 0.397 |  |  |  |  |  | 0.837 | 0.721 | 0.683 | 0.794 | 0.785 | 0.668 | 0.674 | 0.606 | 0.348 | 0.509
18 | SW 900 |  |  |  |  |  |  | 0.545 |  | 0.614 | 0.541 | 0.168 | 0.167 | 0.174 | 0.174 | 0.165 | 0.508 | 0.45 | 0.677 | 0.61 | 0.414
19 | SW 1573 | 1.05 | 1.12 | 1.11 | 1.11 | 1.22 |  |  |  |  |  | 0.224 | 0.547 | 0.186 | 0.415 | 0.223 | 0.675 | 0.618 | 0.583 | 0.216 | 0.607
20 | UMC-11 | 0.948 | 0.955 | 0.8 | 0.936 | 0.822 |  |  |  |  |  | 0.957 | 0.944 | 1.01 | 0.995 | 0.778 | 0.498 | 0.43 | 0.523 | 0.611 | 0.465
